Reference: patent US20230151432A1, “KIF18A INHIBITORS FOR TREATMENT OF NEOPLASTIC DISEASES” (AMGEN INC., priority 2020, published 2023)

What was measured:
[1] = system: human breast cancer cell lines; experiment: 4-day or 6-day cancer cell line growth assay screens (CellTiter-Glo, NCA); assay type: cell-based
Description: (§1) An analysis was carried out to identify cancer cell lines sensitivity profile to the KIF18A inhibitor Compound C9. In this analysis, a panel of different human breast and ovarian cancer cell lines (Table 2 of FIG. 4A and Table 3 of FIG. 4B), were used in either a 4-day or 6-day cancer cell line growth assay screen.
(§2) In the 4-day growth assay screen, cancer cell lines were treated in 96-well tissue culture plates at pre-optimized seeding density. Growth media conditions were determined by ChemPartners (Shanghai, China). After 24 hours, cells were treated with KIF18A inhibitor (Compound C9; final 10-point concentration range 2.0 μM to 0.0001 μM, 3-fold dilution) in a 4-day cell growth assay based on quantitation of ATP as an indicator of viable cells using CellTiter-GLO 2.0 readout (CTG, Promega). CTG assay was performed in duplicate for each cell line. Detection was performed using luminescence plate reader and expressed as relative luminescence units (RLU) based on POC (percentage of DMSO control). Raw data was provided to Amgen for curve-fitting analysis with 4-parameter equation (variable slope) using GraphPad Prism software (V7.0.4). […]
(§3) An expanded screen was performed using 6-day growth assay, cancer cell lines were treated in black 384-well tissue culture plates at 500-1500 cells per well. Growth media conditions were determined by Horizon Discovery (Cambridge, United Kingdom). After 24 hours, cells were treated with KIF18A inhibitor (Compound C9; final 11-point concentration range 2.0 μM to 0.0000339 μM, 3-fold dilution) in a 6-day cell growth assay based on quantitation of ATP as an indicator of viable cells using CellTiter-GLO 2.0 readout (Promega). Luminescence was detected using Envision plate reader (Perkin Elmer) and expressed as relative luminescence units (RLU) based on POC (percentage of control). […]
(§4) In Tables 2 and 3, “?” means that there were differences in sensitivity calls between the first screen and the second screen, and “ND” means not determined. […]

[2] = system: human ovarian cancer cell lines; experiment: as above; assay type: cell-based; conditions: nine TP53 wild-type ovarian cancer cell lines
Description: as §1, §2, §3, §4

[3] = Tolerability (body weight, blood counts) in tumor-bearing nude mice; assay type: in vivo, mouse; conditions: 18 days
Description: Female athymic nude mice were injected with 5×10^6 cells in 0.1 mL subcutaneously in the right flank. After tumors were established (average tumor volume of 150 mm^3), animals were randomized into 4 treatment groups (vehicle alone, KIF18A inhibitor at 10, 30, or 100 mg/kg) with 10 animals per group and treated orally once per day (PO, QD) starting on day 25 post-tumor implantation. Tumor measurement was calculated from the length, width and height of tumors measured with a PRO-MAX electronic digital caliper (Japan Micrometer Mfg. Co. LTD). The tumor volume was calculated as [L×W×H] and expressed in mm^3. Tumor volume and animal body weight measurements were determined twice per week (study start day 25, study end day 45). A single mouse was removed from the study (KIF18A inhibitor 30 mg/kg group) due to abdominal distention, a finding likely unrelated to compound.
Data was plotted using GraphPad Prism software (V7.0.4), tumor volume and body weight data are expressed as means plus or minus standard error of the mean and plotted as a function of time. Statistical significance of observed differences between growth curves were calculated using SLACR package (v.1.0.3). Statistical significance for tumor regressions were performed by paired Student's t-Test on the initial and final tumor volumes with significant tumor regression p-values (***p≤0.0001) for all three KIF18A inhibitor treatment groups. KIF18A inhibitor dose 10 mg/kg (81% regression, 5 of 10 tumor-free), 30 mg/kg (98% regression, 8 of 9 tumor-free), and 100 mg/kg (97% regression, 7 of 10 tumor-free).
Female athymic nude mice were injected with 5×10^6 OVCAR-8 cells in 0.1 mL subcutaneously in the right flank. […] Tumor volume and animal body weight measurements were determined twice per week (study start day 25, study end day 47). Tumor measurements, formulas, and regression analysis as described above for FIGS. 5A-5B. Data was plotted using GraphPad Prism software (V7.0.4), tumor volume and body weight data are expressed as means plus or minus standard error of the mean and plotted as a function of time. Statistical significance of observed differences between growth curves were calculated using SLACR package (v.1.0.3).
(§5) Data was graphed using GraphPad Prism 7.05.
(§6) Tumor volume and body weight assessment performed as described above. After the final dose on day 36, plasma pharmacokinetic analysis was performed as described above. All data analysis was performed as described above.
(§7) Animals were dosed IP daily with vehicle alone, C9 (50 or 100 mg/kg), or C12 (25 or 50 mg/kg). […] Tumor volume and body weight assessment performed as described above. After the final dose on day 46, plasma pharmacokinetic analysis was performed as described above except blood was drawn by retro-orbital bleed method.

CAL-51 tumors = experiment: CAL-51 Tumor Xenograft Efficacy Study (IP); assay type: in vivo, mouse; conditions: 100 mg/kg IP once daily for 18 consecutive days
Description: as §6

[4] = Terminal plasma pharmacokinetic analysis in tumor-bearing mice; assay type: in vivo, mouse
Description: as §5, §6, §7

[5] = OVCAR-3 study, C9 100 mg/kg, C12 25 mg/kg IP daily

## CC(C)(C)NS(=O)(=O)c1cccc(NC(=O)c2ccc(S(=O)(=O)NC(C)(C)C)cc2N2CCC3(CC2)CC3)c1 [Compound C9, 4-(N-(tert-butyl)sulfamoyl)-N-(3-(N-(tert-butyl)sulfamoyl)phenyl)-2-(6-azaspiro[2.5]octan-6-yl)benzamide]
[1]; luminal A or luminal B breast cancer cell lines
  sensitivity to KIF18A inhibitor: None of the luminal A or luminal B breast cancer cell lines were sensitive
[1]; nine TP53 wild-type breast cancer cell lines incl. CAL-51, DU4475
  sensitivity to KIF18A inhibitor: None of the nine TP53 wild-type breast cancer cell lines were sensitive
[2]
  sensitivity to KIF18A inhibitor: None of the nine TP53 wild-type ovarian cancer cell lines were sensitive
[3]; CAL-51 study, C9 100 mg/kg, C12 25 mg/kg IP daily
  tolerability (body weight): well-tolerated
[3]; [5]
  body weight loss or changes in blood counts: no evidence of body weight loss or changes in blood counts
  tolerability: well-tolerated
[3]; OVCAR-8 study, C9 50 or 100 mg/kg, C12 25 or 50 mg/kg IP daily
  tolerability (body weight): well-tolerated
CAL-51 tumors
  effect on tumor growth relative to vehicle control: no observable effect
[4]; OVCAR-3, CAL-51, OVCAR-8 studies
  PK profiles across studies: comparable across studies
[4]; nude, mouse, plasma, OVCAR-3 study, 100 mg/kg IP, after the final dose
  AUC: 130 µM·h
